In patent US9193995B2, “Compositions for detecting human interferon-alpha subtypes and methods of use” (UNITED STATES DEPARTMENT OF HEALTH AND HUMAN SERVICES, priority 2008, dated 2015):

Experiments:
Experiment in all cases: IFN subtype expression in response to TLR ligands (RT-PCR)
Format in all cases: cell-based, Human
plasmacytoid DC (pDC) = conditions: 10 uM Imiquimod, 6.5 ug/ml CpG A, 1, 4 or 24 hours, much higher levels than mDC
Description: (§1) To test whether expression of IFN subtypes varied among different cell types, the primers of the invention were used to determine expression patterns of IFN-alpha, IFN-lambda, IFN-beta and IFN-gamma in response to ligands of TLR 3 (poly I:C), 4 (LPS), 7 (imiquimod) and 9 (CpG). LPS (E. coli O111:B4), imiquimod, and poly I:C were purchased from EMD Chemicals (Gibbstown, N.J.). CpG types D35, K, and C, and control D35 GpC oligonucleotides were synthesized by the Food and Drug Administration Center for Biologics Evaluation and Research Facility for Biotechnology Resources. For both the D35 CpG and control GpC, the two bases at the 5′ and 3′ ends had nuclease-resistant phosphorothioate linkages.
(§2) Human peripheral blood monocytes, myeloid DC (mDC), plasmacytoid DC (pDC), and B cells were isolated. Elutriated monocytes and lymphocytes were obtained from the NIH Clinical Center Department of Transfusion Medicine (Bethesda, Md.) and the preparation was subjected to Ficoll-Hypaque (Sigma-Aldrich, St. Louis, Mo.) density centrifugation. Monocytes, mDC and pDC were purified with magnetic beads specific for CD14, CD1c, and CD303, respectively using an AutoMACS magnetic cell sorter (Miltenyi Biotec, Auburn, Calif.). […]

myeloid DC (mDC) = conditions: 10 uM Imiquimod, 6.5 ug/ml CpG A, 1, 4 or 24 hours, varied with donor, FIG. 9E
Description: as §1, §2

monocytes, MDM and MDDC = conditions: 25 ug/ml Poly I:C, 10 ng/ml LPS, 1, 4 or 24 hours, FIG. 9A-C
Description: as §1, §2

Q: With `CC(C)Cn1cnc2c(N)nc3ccccc3c21` [imiquimod] as the molecule, how does the “IFN expression in response to TLR ligand” value (plasmacytoid DC (pDC)) read?
A: expressed most IFN

Q: What about the “IFN expression in response to TLR ligand” value (myeloid DC (mDC)) of the same molecule?
A: expressed most IFN-a subtypes

Q: Which “IFN expression in response to TLR ligand” value (monocytes, MDM and MDDC) does the source give for poly I:C here?
A: expressed high levels of IFN-b, IFN-g, IFN-11, and to a lesser extent, IFN-l2 and IFN-a1
